# Measurements taken from US20220400680A1, “USE OF ACYLCYANAMIDES OR SALTS THEREOF FOR REGULATING PLANT GROWTH” (Alzchem Trostberg GmbH, priority 2019, published 2022).
# Tests used:
# [1] = tested on: Grape, type Pinot Noir (C4); test: Greenhouse test, cut wine sprouts C4 dipped in test solution, bud development stage; format: in vivo, Vitis vinifera subsp. vinifera; set-up: key to Bud development stage, wine sprouts C4: Stage 0: Buds unchanged; Stage 1: Buds slightly swollen, first green tips visible; Stage 2: strongly swollen, green buds; Stage 3: Buds before breaking open, leaf or flower root already visible; Stage 4: Flower buds fully developed, but still closed, white petals already visible. In the case of the grapevine, stage 4 was the unfolding of the first leaves; Stage 5: Flowers fully open or, in the case of grapevine, unfolding of the flower roots (“Gescheine”) on the fully leafed sprouts; conditions: for Dormancy-breaking effect according to the definition, wine C4: stage 4 reached or exceeded after 36 days vs negative control
# Protocol: Greenhouse tests were conducted using cut fruit tree branches placed in water jars and maintained under controlled conditions with temperature regulation at approximately 22° C. and natural lighting. C4: Grape, Type Pinot Noir Grape: Vitis vinifera subsp. vinifera type Pinot Noir is an important and high quality red wine type that has existed for possibly 2000 years. It is cultivated all over the world because the type produces high quality red wines and has sufficient winter frost resistance. The type requires early and good areas with deep, warm, medium-heavy and fertile soils with good water supply. Pinot Noir produces regular, medium-high to high yields. However, there are a large number of clones that differ in yield, berry size and looseness. […] The test solutions were prepared directly, i.e. without intermediate preparation of a concentrate. For each of the test substances A-1 to A-13, an aqueous solution of 0.15 mol of the test substance and 0.15 g BreakThru® OE-446 was prepared and filled up to a total of 500 g with water. Of bis-cyanamides A-14 and A-15, 0.075 mol each was filled up to 500 g in an analogous manner. These test solutions (in combination with the above 4 species/types Cx) were given the test numbers Cx-A1 to Cx-A15. […] This was done with the following evaluation scale: • Stage 0: […] Flower buds fully developed, but still closed, white petals already visible. […] Flowers fully open or, in the case of grapevine, unfolding of the flower roots (“[…]”) on the fully leafed sprouts.
# [2] = tested on: Table cherry, type Burlat (C3); test: Greenhouse test, cut cherry branches C3 dipped in test solution, bud development stage; format: in vivo, Prunus avium; set-up: key to Bud development stage, cherry branches C3: Stage 0: Buds unchanged; Stage 1: Buds slightly swollen, first green tips visible; Stage 2: strongly swollen, green buds; Stage 3: Buds before breaking open, leaf or flower root already visible; Stage 4: Flower buds fully developed, but still closed, white petals already visible. In the case of the grapevine, stage 4 was the unfolding of the first leaves; Stage 5: Flowers fully open or, in the case of grapevine, unfolding of the flower roots (“Gescheine”) on the fully leafed sprouts; conditions: for Good to very good dormancy-breaking effect, cherry C3: stage 4 reached or exceeded after 21 days vs negative control; for Dormancy-breaking effect according to the definition, cherry C3: stage 4 reached or exceeded after 27 days vs negative control
# Protocol: Greenhouse tests were conducted using cut fruit tree branches placed in water jars and maintained under controlled conditions with temperature regulation at approximately 22° C. and natural lighting. C3: Table Cherry, Type Burlat Table cherry: Prunus avium type Bigarreau Burlat or […] is a strong-growing somewhat sparse growing sweet cherry tree with horizontal side sprouts. The type has been known since 1930 and is one of the most important types in commercial cultivation. […] Medium but regular yields identify the type as a secondary type for early and dry areas. […] The test solutions were prepared directly, i.e. without intermediate preparation of a concentrate. For each of the test substances A-1 to A-13, an aqueous solution of 0.15 mol of the test substance and 0.15 g BreakThru® OE-446 was prepared and filled up to a total of 500 g with water. Of bis-cyanamides A-14 and A-15, 0.075 mol each was filled up to 500 g in an analogous manner. These test solutions (in combination with the above 4 species/types Cx) were given the test numbers Cx-A1 to Cx-A15. […] This was done with the following evaluation scale: • Stage 0: […] Flower buds fully developed, but still closed, white petals already visible. […] Flowers fully open or, in the case of grapevine, unfolding of the flower roots (“[…]”) on the fully leafed sprouts.
# [3] = tested on: Table apple, type Zabergäu-Renette (C2); test: Greenhouse test, cut apple branches C2 dipped in test solution, bud development stage; format: in vivo, Malus domestica; set-up: key to Bud development stage, apple branches C2: Stage 0: Buds unchanged; Stage 1: Buds slightly swollen, first green tips visible; Stage 2: strongly swollen, green buds; Stage 3: Buds before breaking open, leaf or flower root already visible; Stage 4: Flower buds fully developed, but still closed, white petals already visible. In the case of the grapevine, stage 4 was the unfolding of the first leaves; Stage 5: Flowers fully open or, in the case of grapevine, unfolding of the flower roots (“Gescheine”) on the fully leafed sprouts
# Protocol: Greenhouse tests were conducted using cut fruit tree branches placed in water jars and maintained under controlled conditions with temperature regulation at approximately 22° C. and natural lighting. C2: Table Apple, Type […] Table apple: Malus domestica type […] first developed in 1885 as a chance seedling in Hausen a.d. Zaber/Baden-Württemberg and initially grown as 'Hausener Graue […]'. No defined storage type; requires heavy soils (loam). Tree growth initially strong with oblique upright leading branches, later medium with flat branches. Crown broad and flat-spherical with flat fruiting wood. Leaves large, broad oval and with clearly separated tip. Triploid type with late and long-lasting flowering. Yield starting early, medium high and somewhat alternate. […] The test solutions were prepared directly, i.e. without intermediate preparation of a concentrate. For each of the test substances A-1 to A-13, an aqueous solution of 0.15 mol of the test substance and 0.15 g BreakThru® OE-446 was prepared and filled up to a total of 500 g with water. Of bis-cyanamides A-14 and A-15, 0.075 mol each was filled up to 500 g in an analogous manner. These test solutions (in combination with the above 4 species/types Cx) were given the test numbers Cx-A1 to Cx-A15. […] This was done with the following evaluation scale: • Stage 0: […] Flower buds fully developed, but still closed, white petals already visible. […] Flowers fully open or, in the case of grapevine, unfolding of the flower roots (“[…]”) on the fully leafed sprouts.
# [4] = tested on: Table apple, type Boiken apple (C1); test: Greenhouse test, cut apple branches C1 dipped in test solution, bud development stage; format: in vivo, Malus domestica; set-up: key to Bud development stage, apple branches C1: Stage 0: Buds unchanged; Stage 1: Buds slightly swollen, first green tips visible; Stage 2: strongly swollen, green buds; Stage 3: Buds before breaking open, leaf or flower root already visible; Stage 4: Flower buds fully developed, but still closed, white petals already visible. In the case of the grapevine, stage 4 was the unfolding of the first leaves; Stage 5: Flowers fully open or, in the case of grapevine, unfolding of the flower roots (“Gescheine”) on the fully leafed sprouts; conditions: for Dormancy-breaking effect according to the definition, apple C1: stage 4 reached or exceeded after 36 days vs negative control
# Protocol: Greenhouse tests were conducted using cut fruit tree branches placed in water jars and maintained under controlled conditions with temperature regulation at approximately 22° C. and natural lighting. C1: Table Apple, Type Boiken Apple Table apple: Malus domestica type Boiken first described in 1828 in Bremen after Deichvogt Boiken. Apple type for rough locations and for almost every soil suitable scattered fruit type, whereby heavy soils and not too warm locations are required. Tree growth initially strong, later medium. Older crowns become broadly spherical and are loosely branched. Flowering starting medium-late and long lasting, petals large with little pink. Yield starting late (October) and irregular; with long shelf life and pressure resistance. […] The test solutions were prepared directly, i.e. without intermediate preparation of a concentrate. For each of the test substances A-1 to A-13, an aqueous solution of 0.15 mol of the test substance and 0.15 g BreakThru® OE-446 was prepared and filled up to a total of 500 g with water. Of bis-cyanamides A-14 and A-15, 0.075 mol each was filled up to 500 g in an analogous manner. These test solutions (in combination with the above 4 species/types Cx) were given the test numbers Cx-A1 to Cx-A15. […] This was done with the following evaluation scale: • Stage 0: […] Flower buds fully developed, but still closed, white petals already visible. […] Flowers fully open or, in the case of grapevine, unfolding of the flower roots (“[…]”) on the fully leafed sprouts.
# [5] = T1 (14 d), 0.15 mol (A-14, A-15: 0.075 mol) per 500 g solution
SMILES,"Bud development stage, wine sprouts C4 [1, 5]","Bud development stage, wine sprouts C4 ([1]; T2 (16 d))","Bud development stage, wine sprouts C4 ([1]; T3 (21 d))","Bud development stage, wine sprouts C4 ([1]; T4 (27 d))","Bud development stage, wine sprouts C4 ([1]; T5 (36 d))","Bud development stage, wine sprouts C4 ([1]; T6 (56 d))","Bud development stage, cherry branches C3 [2, 5]","Bud development stage, cherry branches C3 ([2]; T2 (16 d))","Bud development stage, cherry branches C3 ([2]; T3 (21 d))","Bud development stage, cherry branches C3 ([2]; T4 (27 d))","Bud development stage, cherry branches C3 ([2]; T5 (36 d))","Bud development stage, cherry branches C3 ([2]; T6 (56 d))","Dormancy-breaking effect according to the definition, cherry C3 [2]","Bud development stage, apple branches C2 [3, 5]","Bud development stage, apple branches C2 ([3]; T2 (16 d))","Bud development stage, apple branches C2 ([3]; T3 (21 d))","Bud development stage, apple branches C2 ([3]; T4 (27 d))","Bud development stage, apple branches C2 ([3]; T5 (36 d))","Bud development stage, apple branches C2 ([3]; T6 (56 d))","Bud development stage, apple branches C1 [4, 5]",further results
"N#CNC(=O)CCC(=O)NC#N.[Na].[Na] [Example A-14, Disodium-(3-(cyano-amidocarbonyl)-propionyl-cyanamide)]",0,0,0,2,4,4,0,1,4,5,5,5,dormancy-breaking effect,0,0,0,1,3,4,1,"Dormancy-breaking effect according to the definition, wine C4 [1]: dormancy-breaking effect; Good to very good dormancy-breaking effect, cherry C3 [2]: good to very good dormancy-breaking effect; Bud development stage, apple branches C1 ([4]; T2 (16 d)): 1; Bud development stage, apple branches C1 ([4]; T3 (21 d)): 2; Bud development stage, apple branches C1 ([4]; T4 (27 d)): 3; Bud development stage, apple branches C1 ([4]; T5 (36 d)): 5; Bud development stage, apple branches C1 ([4]; T6 (56 d)): 5; Dormancy-breaking effect according to the definition, apple C1 [4]: dormancy-breaking effect"
"N#CNC(=O)Cc1ccccc1.[Na] [Example A-12, Sodium phenylacetyl cyanamide]",0,0,1,3,4,4,0,1,2,5,5,5,dormancy-breaking effect,0,0,3,3,4,5,0,"Dormancy-breaking effect according to the definition, wine C4 [1]: dormancy-breaking effect; Dormancy-breaking effect according to the definition, apple C2 ([3]; stage 4 reached or exceeded after 36 days vs negative control): dormancy-breaking effect; Bud development stage, apple branches C1 ([4]; T2 (16 d)): 1; Bud development stage, apple branches C1 ([4]; T3 (21 d)): 2; Bud development stage, apple branches C1 ([4]; T4 (27 d)): 2; Bud development stage, apple branches C1 ([4]; T5 (36 d)): 5; Bud development stage, apple branches C1 ([4]; T6 (56 d)): 5; Dormancy-breaking effect according to the definition, apple C1 [4]: dormancy-breaking effect"
"CCCCCCCCCCCC(=O)NC#N.[Na] [Example A-10, Sodium dodecanoyl cyanamide]",0,0,0,1,2,4,1,2,4,4,4,5,dormancy-breaking effect,0,0,0,1,2,4,1,"Good to very good dormancy-breaking effect, cherry C3 [2]: good to very good dormancy-breaking effect; Bud development stage, apple branches C1 ([4]; T2 (16 d)): 2; Bud development stage, apple branches C1 ([4]; T3 (21 d)): 4; Bud development stage, apple branches C1 ([4]; T4 (27 d)): 5; Bud development stage, apple branches C1 ([4]; T5 (36 d)): 5; Bud development stage, apple branches C1 ([4]; T6 (56 d)): 5; Good to very good dormancy-breaking effect, apple C1 ([4]; stage 4 reached or exceeded after 27 days vs negative control): good to very good dormancy-breaking effect; Dormancy-breaking effect according to the definition, apple C1 [4]: dormancy-breaking effect"
